{
  "source": "paper PMC9012943",
  "about": "“Oral remdesivir derivative VV116 is a potent inhibitor of respiratory syncytial virus with efficacy in mouse model” (Signal Transduction and Targeted Therapy, 2022)",
  "key": {"RSV A2": {"system": "RSV A2", "experiment": "Inhibition of RSV A2 replication in A549 cells (qRT-PCR)", "type": "cell-based, respiratory syncytial virus", "experimental": "A549, HEp-2 or NHBE cells were plated into 48 well-plate and incubated overnight. Upon reaching 80% cell confluence, cells were infected RSV A2 (at an MOI of 2 in A549, MOI of 0.5 in HEp-2, and MOI of 1 in NHBE cells) for 2 h after cells were incubated for 1 h with varying concentrations of drugs. Then, the virus-drug mixture was removed, and cells were cultured with drug-containing medium. At 48 h post inoculation, total RNAs were extracted from cells and then in reverse transcription using PrimeScript RT reagent Kit with gDNA Eraser (TaKaRa). For determining the viral copies, absolute quantitative RT-PCR was performed with TB Green® Premix Ex Taq^TM II (TaKaRa). RSV A2 F fragment was quantified with primers 5’-[…]-3’; and 5’-[…]-3’"}, "[1]": {"experiment": "Toxicokinetics in SD rats", "type": "in vivo", "experimental": "Groups of male and female SD rats (4 animals/sex/group) received repeated oral doses of VV116 (dissolved in 40%PEG400+10% Kolliphor® HS15+50% ultrapure water) at 100 (low), 200 (mild) and 500 mg/kg/d (high) for 14 days. At day 1 and day 14, blood samples were collected from the jugular vein into EDTA-K2 tubes at various time points post-dose. Plasma samples were obtained following general procedures and the concentrations of analytes in the samples were analyzed by LC-MS/MS."}, "[2]": {"experiment": "Pharmacokinetic study in Balb/c mice", "type": "in vivo", "details": "for Cmax: X1 in blood", "experimental": "A total of nine Balb/c mice (N = 3 for each group, male) were divided into three groups, and fasted for 12 h before dosing. The three groups received oral dose of VV116 dissolved in 40%PEG400+10% Kolliphor® HS15+50% ultrapure water at 25 mg/kg, 50 mg/kg and 100 mg/kg, respectively. At 5 min, 0.25, 0.5, 1.0, 2.0, 4.0, 6.0, 8.0, and 24 h post-dosing, blood samples were collected from the jugular vein or the submandibular vein into EDTA-K2 tubes, and immediately mixed with acetonitrile (20 µL blood + 80 μL acetonitrile). The concentrations of analytes in the blood were analyzed by LC-MS/MS."}, "[3]": {"experiment": "Cellular toxicity in A549 cells (WST-8 cell viability)", "type": "cell-based", "details": "human; A549 cells, 48 h; read-out: CC50", "experimental": "Cell viability was performed in 96-well plate with triplicate for each concentration. All drugs were diluted 2 times with 9 gradients starting at 500 micromores in maintenance medium (DMEM containing 2% FBS). After 48 h incubation, the supernatant was removed, and 10 μL WST-8 (2-(2-methoxy-4-(phenyl)-3-(4-(phenyl) to 5 (2, 4-sulpho benzene) -2 h-tetrazolium monosodium salt) in maintenance medium was added in medium. Plates were measured at 450 nm wavelength using spectrophotometer (BioTek) after 2 h incubation, and cell viability was calculated."}, "[4]": {"experiment": "Tissue distribution study in Balb/c mice", "type": "in vivo", "details": "VV116 oral 100 mg/kg", "experimental": "A total of thirty Balb/c mice were divided into five groups (3 animals/sex/group). VV116 was intragastrically administered at 100 mg/kg dissolved in 40%PEG400+10% Kolliphor® HS15+50%. At 0 (not administered), 0.25, 2, 6, and 24 h post-dosing, the five groups of mice were anesthetized, respectively. Blood samples were collected, and tissues including liver and lung were harvested. Tissue samples were individually homogenized, and blood samples were processed as above. The concentrations of X1 in liver, lung and blood were analyzed by LC-MS/MS."}},
  "note": "Where two headings read alike, the source gives them in different places.",
  "data": [
    {"smiles": "[2H]c1cc([C@]2(C#N)O[C@H](CO)[C@@H](O)[C@H]2O)n2ncnc(N)c12", "note": "[X1]", "values": [
      {"measurement": "SI", "setting": "RSV A2", "result": "> 314"},
      {"measurement": "EC90", "setting": "RSV A2; human respiratory syncytial virus, RSV A2", "result": "3.56 ± 0.63", "unit": "µM"},
      {"measurement": "EC50", "setting": "RSV A2; human respiratory syncytial virus, RSV A2 MOI 2, 48 h", "result": "1.59 ± 0.49", "unit": "µM"},
      {"measurement": "AUC0-t", "setting": "[1]; both sexes, rat, plasma, po, X1, SD rats, VV116 p.o. 200 mg/kg, Total, Day 1", "result": 85200, "unit": "ng·h/mL"},
      {"measurement": "AUC0–t of X1 at rat NOAEL (200 mg/kg) relative to that at 50 mg/kg in mice", "setting": "[1]; in vivo", "result": "~ 3.5 folds"},
      {"measurement": "Time for blood concentration of X1 to reach Cmax", "setting": "[2]; Balb/c mice, following oral administration of VV116", "result": "≤ 0.5", "unit": "h"},
      {"measurement": "Cmax", "setting": "[2]; male, mouse, whole blood, po, Balb/c mice, VV116 p.o. 25 mg/kg, read-out: Cmax", "result": 5360, "unit": "ng/mL"},
      {"measurement": "half-life", "setting": "[2]; male, mouse, whole blood, X1, Balb/c mice, VV116 oral 25 to 100 mg/kg, read-out: elimination half-life", "result": "2.3 to 4.25", "unit": "h"},
      {"measurement": "Cmax", "setting": "[2]; male, mouse, whole blood, Balb/c mice, VV116 oral 25 mg/kg, read-out: mean Cmax", "result": 18.4, "unit": "µM"},
      {"measurement": "CC50 at 48 h", "setting": "[3]", "result": "> 500", "unit": "µM"},
      {"measurement": "concentration of X1 in the lung relative to that in the liver", "setting": "[4]", "result": "about half"}
    ]}
  ]
}
